The text below walks through data of patent publication US20220184083A1, “USE OF AN AGENT CAPABLE OF INHIBITING THE ACTIVATION OF MAIT CELLS FOR THE TREATMENT OF OBESITY AND OBESITY-RELATED DISORDERS” (INSERM (INSTITUT NATIONAL DE LA SANTÉ ET DE LA RECHERCH …, priority 2019, published 2022).

Assay type in all cases: in vivo
In one assay the test system is Vαl9^+/− mice fed HFD. The assay can be described thus: ITT, OGTT and weight gain in Vαl9+/− mice on high fat diet treated with Ac-6-FP. An excerpt: FIG. 2: Ac-6-FP treatment during HFD improved metabolic parameters. Vαl9^+/− mice fed during 6 weeks of HFD were then giving water containing 50 nm/ml of Ac-6-FP (Acetyl-6-formylpterin) (n=8) or PBS (n=7) for 8 weeks and IP injected, twice a week, 50 nm of Ac-6-FP or PBS. (A) ITT and OGTT in Vαl9^+/− Ac-6-FP-treated mice and Vαl9^+/− control mice. (B) Percentage of weight gain of Ac-6-FP-treated Vαl9^+/− mice and Vαl9^+/− control mice.

For a further assay, the system named is MAIT cells. Put plainly: Intracellular staining of MAIT cells for IL-17A in ileum and visceral adipose tissue. To be noted: Vα19+/− mice, Ac-6-FP treated vs control (PBS). From the text: FIG. 3: Intra cellular staining of MAIT cells for IL-17A. Frequency of IL-17A positive MAIT cells in ileum and visceral adipose tissue from Vαl9+/− control (PBS) and Vαl9+/− Ac-6-FP treated mice.

A further assay deals with MR1−/− mice. Put plainly: ITT and OGTT at 12 weeks of HFD in MR1−/− mice treated with Ac-6-FP. To be noted: Ac-6-FP treated vs controls. From the text: FIG. 5: Insulin Tolerance Test (ITT) and Oral Glucose Tolerance Test (OGTT) at 12 weeks of High Fat Diet (HFD) in MR1−/− Ac-6-FP treated mice and their respective controls.
The test system of assay [1] is visceral adipose tissue macrophages. Put plainly: Frequency of M1 and M2 macrophages in visceral adipose tissue. To be noted: Vαl9+/− mice, treated vs non-treated. An excerpt:
FIG. 4: Frequency of MI-macrophages (CD206−CD11c+) and M2-macrophages (CD206+CD11c−) among total macrophages and M1/M2 ratio in visceral adipose tissue from Vαl9+/− Ac-6-FP treated mice and their controls.

Take `CC(=O)Nc1nc2ncc(C=O)nc2c(=O)[nH]1` [Ac-6-FP, acetyl-6-formylpterin]: the insulin sensitivity entry in the assay with Vαl9^+/− mice fed HFD (Ac-6-FP treatment during high fat diet (HFD), obese mice) is recorded as “improved”. Further, in the assay on Vαl9^+/− mice fed HFD (Vαl9+/− mice, 6 weeks HFD, then water containing 50 nm/ml Ac-6-FP for 8 weeks plus IP 50 nm twice a week, vs PBS), the “metabolic parameters (ITT, OGTT, percentage of weight gain)” value was “improved”. Besides, in the assay with MAIT cells (ileum), the “production of IL-17A by MAIT cells” value is “decreased production”. For the same compound, the “production of IL-17A by MAIT cells” value in the assay with MAIT cells (visceral adipose tissue) was “decreased production”. Further, in the assay on MR1−/− mice, the “glucose tolerance (OGTT)” value is recorded as “did not have any effect” and the “insulin sensitivity (ITT)” value is “did not have any effect”. For the same compound, in assay [1], the “frequency of M1-like macrophages (pro-inflammatory, CD206−CD11c+)” value is recorded as “decreased frequency” and the “frequency of M2-like macrophages (anti-inflammatory, CD206+CD11c−)” value was “increased frequency”.
